Consider 29 compounds from ChEMBL document CHEMBL6078657, “Thiazolidinedione-based structure modification of ergosterol peroxide provides thiazolidinedione-conjugated derivatives as potent agents against breast cancer cells through a PI3K/AKT/mTOR pathway” (Bioorg Med Chem, 2025).

What all share (assay type): functional, cell-based
One assay relates to A549. Description: Antiproliferative activity against human A549 cells assessed as cell viability measured after 48 hrs incubation by MTT assay. The settings on record: A549, 48 h.
A further assay has as its system HepG2. Description: Antiproliferative activity against human HepG2 cells assessed as cell viability measured after 48 hrs incubation by MTT assay. The settings on record: HepG2, 48 h.
For a further assay, the system named is MCF7. Description: Antiproliferative activity against human MCF7 cells assessed as cell viability measured after 48 hrs incubation by MTT assay. The settings on record: MCF7, 48 h. On the technique in general: Tetrazolium dyes change colour on reduction, which living cells bring about.

Structures are written as SMILES. pIC50: −log10 of the molar value.

With `CC(C)[C@@H](C)/C=C/[C@@H](C)[C@H]1CC[C@@H]2[C@]1(C)CC[C@H]1[C@]23C=C[C@]2(C[C@@H](OC(=O)CN4C(=O)S/C(=C/c5ccc(F)cc5)C4=O)CC[C@]12C)OO3`, the negative logarithm of the IC50 (pIC50) (as a rule, the negative decadic logarithm of the IC50, by convention in mol/L) with A549 was 4.93; in the assay with HepG2 it was 4.83; with MCF7, 4.79.

`COc1ccc(/C=C2/SC(=O)N(CC(=O)O[C@H]3CC[C@]4(C)[C@H]5CC[C@]6(C)[C@@H]([C@H](C)/C=C/[C@H](C)C(C)C)CC[C@H]6[C@@]56C=C[C@]4(C3)OO6)C2=O)cc1`: the pIC50 in the assay with A549 was 5.00; with HepG2, 4.97; with MCF7 it was 4.74.

Turning to `CC(C)[C@@H](C)/C=C/[C@@H](C)[C@H]1CC[C@@H]2[C@]1(C)CC[C@H]1[C@]23C=C[C@]2(C[C@@H](OC(=O)NCCNC(=O)CN4C(=O)S/C(=C\c5ccc(C(C)(C)C)cc5)C4=O)CC[C@]12C)OO3`, the pIC50 was 5.18 with A549, 5.01 in the assay with HepG2 and 4.97 in the assay on MCF7.

In the case of `CC(C)[C@@H](C)/C=C/[C@@H](C)[C@H]1CC[C@H]2C3=CC=C4C[C@@H](OC(=O)NCCNC(=O)CN5C(=O)S/C(=C\c6cccc7ccccc67)C5=O)CC[C@]4(C)[C@H]3CC[C@]12C`, the pIC50 in the assay with A549, in the assay with HepG2 and in the assay with MCF7 was under 4.10 throughout.

As to `CC(C)[C@@H](C)/C=C/[C@@H](C)[C@H]1CC[C@@H]2[C@]1(C)CC[C@H]1[C@]23C=C[C@]2(C[C@@H](OC(=O)CN4C(=O)CSC4=O)CC[C@]12C)OO3`, the negative logarithm of the IC50 (pIC50) in the assay with A549 is 5.12; in the assay with HepG2, 4.75; in the assay on MCF7, 4.98.

Take `CC(C)[C@@H](C)/C=C/[C@@H](C)[C@H]1CC[C@@H]2[C@]1(C)CC[C@H]1[C@]23C=C[C@]2(C[C@@H](OC(=O)CN4C(=O)S/C(=C/c5ccc(F)c(Cl)c5)C4=O)CC[C@]12C)OO3`: the results for the pIC50 with A549, in the assay with HepG2 and with MCF7 were 5.10, 4.80 and 4.96, respectively.

With `CC(C)[C@@H](C)/C=C/[C@@H](C)[C@H]1CC[C@@H]2[C@]1(C)CC[C@H]1[C@]23C=C[C@]2(C[C@@H](OC(=O)N4CCN(C(=O)CN5C(=O)S/C(=C\c6cccc7ccccc67)C5=O)CC4)CC[C@]12C)OO3`, the negative-log IC50 (pIC50) is 5.10 in the assay on A549, 4.84 in the assay on HepG2 and 5.03 in the assay on MCF7.

Take `CC(C)[C@@H](C)/C=C/[C@@H](C)[C@H]1CC[C@@H]2[C@]1(C)CC[C@H]1[C@]23C=C[C@]2(C[C@@H](OC(=O)N4CCN(C(=O)CN5C(=O)S/C(=C\c6ccoc6)C5=O)CC4)CC[C@]12C)OO3`: the negative logarithm of the IC50 (pIC50) in the assay on A549 is 4.98; in the assay with HepG2, 4.70; with MCF7, 4.78.

As to `COc1cccc(/C=C2/SC(=O)N(CC(=O)O[C@H]3CC[C@]4(C)[C@H]5CC[C@]6(C)[C@@H]([C@H](C)/C=C/[C@H](C)C(C)C)CC[C@H]6[C@@]56C=C[C@]4(C3)OO6)C2=O)c1`, the negative logarithm of the IC50 (pIC50) with A549 was 4.96; in the assay on HepG2, 4.81; with MCF7, 4.77.

Regarding `CC(C)[C@@H](C)/C=C/[C@@H](C)[C@H]1CC[C@@H]2[C@]1(C)CC[C@H]1[C@]23C=C[C@]2(C[C@@H](OC(=O)N4CCN(C(=O)CN5C(=O)S/C(=C\c6ccc(C(C)(C)C)cc6)C5=O)CC4)CC[C@]12C)OO3`, the pIC50 in the assay with A549 is 4.93; with HepG2, 4.71; with MCF7, 4.84.

In the case of `COc1ccc(/C=C2/SC(=O)N(CC(=O)O[C@H]3CC[C@]4(C)[C@H]5CC[C@]6(C)[C@@H]([C@H](C)/C=C/[C@H](C)C(C)C)CC[C@H]6[C@@]56C=C[C@]4(C3)OO6)C2=O)cc1OC`, the pIC50 in the assay with A549 is 4.82; with HepG2 it was 4.74; in the assay on MCF7, 4.87.

For the compound `COc1ccc(/C=C2\SC(=O)N(CC(=O)N3CCN(C(=O)O[C@H]4CC[C@]5(C)[C@H]6CC[C@]7(C)[C@@H]([C@H](C)/C=C/[C@H](C)C(C)C)CC[C@H]7[C@@]67C=C[C@]5(C4)OO7)CC3)C2=O)cc1`, the figures for the negative logarithm of the IC50 (pIC50) with A549, in the assay with HepG2 and in the assay with MCF7 were 5.20, 5.05 and 4.86, respectively.

Regarding `CC(C)[C@@H](C)/C=C/[C@@H](C)[C@H]1CC[C@@H]2[C@]1(C)CC[C@H]1[C@]23C=C[C@]2(C[C@@H](OC(=O)CN4C(=O)S/C(=C/c5cccs5)C4=O)CC[C@]12C)OO3`, the negative logarithm of the IC50 (pIC50) with A549 was 5.13; in the assay with HepG2, 4.76; in the assay with MCF7, 4.78.

Turning to `COc1ccccc1/C=C1/SC(=O)N(CC(=O)O[C@H]2CC[C@]3(C)[C@H]4CC[C@]5(C)[C@@H]([C@H](C)/C=C/[C@H](C)C(C)C)CC[C@H]5[C@@]45C=C[C@]3(C2)OO5)C1=O`, the negative-log IC50 (pIC50) was 4.88 in the assay on A549, 4.72 in the assay with HepG2 and 4.85 in the assay on MCF7.

As for `CC(C)[C@@H](C)/C=C/[C@@H](C)[C@H]1CC[C@@H]2[C@]1(C)CC[C@H]1[C@]23C=C[C@]2(C[C@@H](OC(=O)N4CCN(C(=O)CN5C(=O)S/C(=C\c6ccc(F)c(Cl)c6)C5=O)CC4)CC[C@]12C)OO3`, the values for the pIC50 with A549, in the assay with HepG2 and in the assay on MCF7 were 4.90, 4.86 and 4.82, respectively.

With `CC(C)[C@@H](C)/C=C/[C@@H](C)[C@H]1CC[C@@H]2[C@]1(C)CC[C@H]1[C@]23C=C[C@]2(C[C@@H](OC(=O)CN4C(=O)S/C(=C/c5ccc(Br)cc5)C4=O)CC[C@]12C)OO3`, the negative-log IC50 (pIC50) is 5.02 in the assay with A549, 4.75 in the assay on HepG2 and 4.91 in the assay with MCF7.

As for `CC(C)[C@@H](C)/C=C/[C@@H](C)[C@H]1CC[C@@H]2[C@]1(C)CC[C@H]1[C@]23C=C[C@]2(C[C@@H](OC(=O)CN4C(=O)S/C(=C/c5ccc(C(C)(C)C)cc5)C4=O)CC[C@]12C)OO3`, the figures for the pIC50 with A549, with HepG2 and with MCF7 were 5.08, 4.81 and 5.03, respectively.

In the case of `COc1ccccc1/C=C1\SC(=O)N(CC(=O)N2CCN(C(=O)O[C@H]3CC[C@]4(C)[C@H]5CC[C@]6(C)[C@@H]([C@H](C)/C=C/[C@H](C)C(C)C)CC[C@H]6[C@@]56C=C[C@]4(C3)OO6)CC2)C1=O`, the figures for the pIC50 in the assay on A549, in the assay with HepG2 and with MCF7 were 4.99, 4.65 and 4.81, respectively.

Regarding `CC(C)[C@@H](C)/C=C/[C@@H](C)[C@H]1CC[C@@H]2[C@]1(C)CC[C@H]1[C@]23C=C[C@]2(C[C@@H](OC(=O)CN4C(=O)S/C(=C/C5CC5)C4=O)CC[C@]12C)OO3`, the pIC50 with A549 is 4.89; with HepG2, 4.88; in the assay with MCF7, 5.03.

As to `CC(C)[C@@H](C)/C=C/[C@@H](C)[C@H]1CC[C@@H]2[C@]1(C)CC[C@H]1[C@]23C=C[C@]2(C[C@@H](OC(=O)NCCNC(=O)CN4C(=O)S/C(=C\c5ccc(F)cc5)C4=O)CC[C@]12C)OO3`, the pIC50 in the assay on A549 is 5.04; with HepG2 it was 4.88; in the assay on MCF7 it was 4.93.

As to `CC(C)[C@@H](C)/C=C/[C@@H](C)[C@H]1CC[C@@H]2[C@]1(C)CC[C@H]1[C@]23C=C[C@]2(C[C@@H](OC(=O)CN4C(=O)S/C(=C/c5ccc(Cl)cc5)C4=O)CC[C@]12C)OO3`, the pIC50 was 5.04 in the assay with A549, 4.87 in the assay on HepG2 and 5.00 in the assay with MCF7.

`Cc1ccc(/C=C2\SC(=O)N(CC(=O)N3CCN(C(=O)O[C@H]4CC[C@]5(C)[C@H]6CC[C@]7(C)[C@@H]([C@H](C)/C=C/[C@H](C)C(C)C)CC[C@H]7[C@@]67C=C[C@]5(C4)OO7)CC3)C2=O)cc1`: the pIC50 in the assay on A549 is 5.15; with HepG2, 4.98; in the assay with MCF7, 5.02.

Turning to `Cc1ccc(/C=C2/SC(=O)N(CC(=O)O[C@H]3CC[C@]4(C)[C@H]5CC[C@]6(C)[C@@H]([C@H](C)/C=C/[C@H](C)C(C)C)CC[C@H]6[C@@]56C=C[C@]4(C3)OO6)C2=O)cc1`, the results for the negative-log IC50 (pIC50) in the assay with A549, in the assay with HepG2 and in the assay with MCF7 were 4.85, 4.84 and 4.94, respectively.

On to `CC(C)[C@@H](C)/C=C/[C@@H](C)[C@H]1CC[C@H]2C3=CC=C4C[C@@H](OC(=O)NCCNC(=O)CN5C(=O)S/C(=C\C6CC6)C5=O)CC[C@]4(C)[C@H]3CC[C@]12C`, for which the negative-log IC50 (pIC50) in the assay on A549, with HepG2 and in the assay on MCF7 was under 4.10 in each case.

With `CC(C)[C@@H](C)/C=C/[C@@H](C)[C@H]1CC[C@@H]2[C@]1(C)CC[C@H]1[C@]23C=C[C@]2(C[C@@H](OC(=O)CN4C(=O)S/C(=C/c5cccc6ccccc56)C4=O)CC[C@]12C)OO3`, the pIC50 was 4.99 with A549, 5.22 with HepG2 and 4.83 with MCF7.

Consider `CC(C)[C@@H](C)/C=C/[C@@H](C)[C@H]1CC[C@@H]2[C@]1(C)CC[C@H]1[C@]23C=C[C@]2(C[C@@H](OC(=O)N4CCN(C(=O)CN5C(=O)S/C(=C\c6ccsc6)C5=O)CC4)CC[C@]12C)OO3`, for which the pIC50 with A549 is 5.09; in the assay with HepG2, 4.77; in the assay on MCF7, 4.87.

On to `CC(C)[C@@H](C)/C=C/[C@@H](C)[C@H]1CC[C@@H]2[C@]1(C)CC[C@H]1[C@]23C=C[C@]2(C[C@@H](OC(=O)N4CCN(C(=O)CN5C(=O)S/C(=C\c6ccccc6F)C5=O)CC4)CC[C@]12C)OO3`, for which the pIC50 is 5.16 in the assay with A549, 4.97 in the assay with HepG2 and 4.80 in the assay with MCF7.

Take `CC(C)/C=C1\SC(=O)N(CC(=O)N2CCN(C(=O)O[C@H]3CC[C@]4(C)[C@H]5CC[C@]6(C)[C@@H]([C@H](C)/C=C/[C@H](C)C(C)C)CC[C@H]6[C@@]56C=C[C@]4(C3)OO6)CC2)C1=O`: the figures for the negative-log IC50 (pIC50) in the assay on A549, in the assay on HepG2 and with MCF7 were 5.11, 4.98 and 5.05, respectively.

Consider `COc1ccc(/C=C2\SC(=O)N(CC(=O)N3CCN(C(=O)O[C@H]4CC[C@]5(C)[C@H]6CC[C@]7(C)[C@@H]([C@H](C)/C=C/[C@H](C)C(C)C)CC[C@H]7[C@@]67C=C[C@]5(C4)OO7)CC3)C2=O)cc1OC`, for which the negative-log IC50 (pIC50) in the assay with A549 is 5.11; with HepG2, 4.67; with MCF7 it was 4.87.
